Assay results from patent US20230071763A1, “AURISTATIN-RELATED COMPOUNDS, CONJUGATED AURISTATIN-RELATED COMPOUNDS, AND METHODS OF USE THEREOF” (CYTOMX THERAPEUTICS, INC., priority 2020, published 2023).

Columns and labels:
human CES-1C = biological target: T1, human CES-1C (Homo sapiens, UniProt P23141); assay: Stability to carboxylesterase, human CES-1C; type: in vitro ADME; details: 37° C., in 48 hrs
T1 sequence (P23141 18-566 isoform P23141-3 limits assumed): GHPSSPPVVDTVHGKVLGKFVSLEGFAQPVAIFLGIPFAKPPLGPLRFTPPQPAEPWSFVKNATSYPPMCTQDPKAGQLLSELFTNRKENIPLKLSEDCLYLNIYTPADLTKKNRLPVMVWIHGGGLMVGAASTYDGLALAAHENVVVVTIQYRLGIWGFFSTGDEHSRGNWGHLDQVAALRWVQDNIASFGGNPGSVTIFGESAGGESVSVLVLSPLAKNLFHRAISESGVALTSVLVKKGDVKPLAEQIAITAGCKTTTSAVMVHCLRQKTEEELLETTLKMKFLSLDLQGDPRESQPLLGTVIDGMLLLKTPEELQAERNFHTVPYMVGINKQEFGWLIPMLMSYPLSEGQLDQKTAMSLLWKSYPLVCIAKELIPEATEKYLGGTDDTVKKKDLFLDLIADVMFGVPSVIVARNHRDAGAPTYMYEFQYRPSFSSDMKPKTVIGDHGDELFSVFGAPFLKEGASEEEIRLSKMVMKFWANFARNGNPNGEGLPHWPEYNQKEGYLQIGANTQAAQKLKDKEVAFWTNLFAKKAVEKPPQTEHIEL
Experimental: (§1) In a further exemplary study, the stability of the substrates were determined in the presence of […] different carboxylesterases (human or mouse CES-1 and CES-1C). In this study, the enzymes were activated prior to substrate introduction and then incubated with the substrate at 37° C. over a 48 h time period.

mouse CES-1C = biological target: T2, mouse CES-1C (Mus musculus, UniProt P23953); assay: Stability to carboxylesterase, mouse CES-1C; type: in vitro ADME; details: 37° C., in 48 hrs
T2 sequence (P23953 19-554): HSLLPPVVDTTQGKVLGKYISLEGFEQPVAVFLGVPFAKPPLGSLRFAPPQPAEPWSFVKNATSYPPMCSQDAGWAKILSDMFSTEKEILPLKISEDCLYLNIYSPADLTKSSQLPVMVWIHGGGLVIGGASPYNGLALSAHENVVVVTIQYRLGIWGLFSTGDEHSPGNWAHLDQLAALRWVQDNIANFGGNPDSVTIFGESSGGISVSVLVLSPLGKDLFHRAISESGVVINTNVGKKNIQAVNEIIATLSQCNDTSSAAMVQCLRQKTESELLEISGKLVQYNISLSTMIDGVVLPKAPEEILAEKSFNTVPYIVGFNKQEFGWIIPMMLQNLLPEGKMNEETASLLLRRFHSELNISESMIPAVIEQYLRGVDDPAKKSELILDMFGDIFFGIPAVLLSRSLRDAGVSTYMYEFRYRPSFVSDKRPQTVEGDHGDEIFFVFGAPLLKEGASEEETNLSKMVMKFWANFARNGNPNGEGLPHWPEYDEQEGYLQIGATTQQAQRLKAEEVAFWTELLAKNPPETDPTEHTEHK
Experimental: as §1

tubulin = assay: Binding to tubulin
PC3 = assay: In vitro cytotoxicity (Presto Blue), PC3; type: cell-based; details: 5 days treatment, percent survival
Experimental: (§2) In this assay, the test cells were plated and grown to an appropriate cell density (e.g., 1500 cells/well (50 μL per well) for SW780 cells). The cells were treated with the drug (MMATH or MMAE (monomethylauristatin E)) at concentrations ranging from 10 μM to 10^−4 nM in triplicate for 5 days. On the day 6 endpoint, the cells were incubated with 20 μL of Presto Blue @ 37 C for 2 hr and the signal was read on a Biotek synergy H4 plate reader. After media background was subtracted, the percent survival was calculated and plotted to determine the EC50, as shown in the exemplary results of Table 1.

SKOV3 = assay: In vitro cytotoxicity (Presto Blue), SKOV3; type: cell-based; details: 5 days treatment, percent survival
Experimental: as §2

HCC1954 = assay: In vitro cytotoxicity (Presto Blue), HCC1954; type: cell-based; details: 5 days treatment, percent survival
Experimental: as §2

SW780 cells = assay: In vitro cytotoxicity (Presto Blue), SW780; type: cell-based; details: 5 days treatment, percent survival
Experimental: as §2

CC[C@H](C)C([C@@H](CC(=O)N1CCC[C@H]1[C@H](OC)[C@@H](C)C(=O)N[C@H](C)[C@@H](O)c1ccccc1)OC)N(C)C(=O)[C@@H](NC(=O)[C@@H](NC)C(C)C)C(C)C (some centres unmarked) [Cys-vc-MMAE] was tested, and the “cleavage by human CES-1C” value (human CES-1C) was “completely cleaved” and the “cleavage by mouse CES-1C” value (mouse CES-1C) was “completely cleaved”.

With CCC(C)C(C(CC(=O)N1CCCC1C(OC)C(C)C(=O)NC(CO)Cc1cccs1)OC)N(C)C(=O)C(NC(=O)C(NC)C(C)C)C(C)C (centres unmarked) [MMATH] the Kd (tubulin) was 204000 pM, the EC50 (PC3; Homo sapiens, PC-3, 120 h) was 0.24 nM and the EC50 (SKOV3; Homo sapiens, SK-OV-3, 120 h) was 0.2 nM. It also gave an EC50 (HCC1954; Homo sapiens, HCC1954, 120 h) of 0.03 nM, an EC50 (SW780 cells; Homo sapiens, SW780, 120 h, first SW780 column) of 0.38 nM and an EC50 (SW780 cells; Homo sapiens, SW780, 120 h, second SW780 column) of 0.26 nM.

CC[C@H](C)[C@@H]([C@@H](CC(=O)N1CCC[C@H]1[C@H](OC)[C@@H](C)C(=O)N[C@H](C)[C@@H](O)c1ccccc1)OC)N(C)C(=O)[C@@H](NC(=O)[C@@H](NC)C(C)C)C(C)C [MMAE, monomethylauristatin E] gave a Kd (tubulin) of 69900 pM, an EC50 (PC3) of 0.24 nM and an EC50 (SKOV3) of 0.19 nM. It also gave an EC50 (HCC1954) of 0.03 nM, an EC50 (SW780 cells; first SW780 column) of 0.31 nM and an EC50 (SW780 cells; second SW780 column) of 0.22 nM.
